# Target: GCN2 (Homo sapiens (Human), UniProt Q9P2K8)
# Test: GCN2 Biochemical Assay (TR-FRET, GFP-eIF2S1 substrate phosphorylation)
# Settings: read-out: IC50 (GCN2 Inhibitory Activity)
# Outline: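 In-house GCN2 (1.6 nM 2× stock) phosphorylates GFP-eIF2S1 (50 nM 2× stock) with ATP (0.2 mM 2× stock) and tRNA, pH 7.5, 70 min at room temperature; 10-point 3.16-fold compound series. TR-FRET detection with Tb-anti-phospho antibody, 2–3 h, Ex 340/Em 490/520 nm; artifact plate spiked with phospho-substrate.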
# GCN2, sequence (Q9P2K8 whole entry): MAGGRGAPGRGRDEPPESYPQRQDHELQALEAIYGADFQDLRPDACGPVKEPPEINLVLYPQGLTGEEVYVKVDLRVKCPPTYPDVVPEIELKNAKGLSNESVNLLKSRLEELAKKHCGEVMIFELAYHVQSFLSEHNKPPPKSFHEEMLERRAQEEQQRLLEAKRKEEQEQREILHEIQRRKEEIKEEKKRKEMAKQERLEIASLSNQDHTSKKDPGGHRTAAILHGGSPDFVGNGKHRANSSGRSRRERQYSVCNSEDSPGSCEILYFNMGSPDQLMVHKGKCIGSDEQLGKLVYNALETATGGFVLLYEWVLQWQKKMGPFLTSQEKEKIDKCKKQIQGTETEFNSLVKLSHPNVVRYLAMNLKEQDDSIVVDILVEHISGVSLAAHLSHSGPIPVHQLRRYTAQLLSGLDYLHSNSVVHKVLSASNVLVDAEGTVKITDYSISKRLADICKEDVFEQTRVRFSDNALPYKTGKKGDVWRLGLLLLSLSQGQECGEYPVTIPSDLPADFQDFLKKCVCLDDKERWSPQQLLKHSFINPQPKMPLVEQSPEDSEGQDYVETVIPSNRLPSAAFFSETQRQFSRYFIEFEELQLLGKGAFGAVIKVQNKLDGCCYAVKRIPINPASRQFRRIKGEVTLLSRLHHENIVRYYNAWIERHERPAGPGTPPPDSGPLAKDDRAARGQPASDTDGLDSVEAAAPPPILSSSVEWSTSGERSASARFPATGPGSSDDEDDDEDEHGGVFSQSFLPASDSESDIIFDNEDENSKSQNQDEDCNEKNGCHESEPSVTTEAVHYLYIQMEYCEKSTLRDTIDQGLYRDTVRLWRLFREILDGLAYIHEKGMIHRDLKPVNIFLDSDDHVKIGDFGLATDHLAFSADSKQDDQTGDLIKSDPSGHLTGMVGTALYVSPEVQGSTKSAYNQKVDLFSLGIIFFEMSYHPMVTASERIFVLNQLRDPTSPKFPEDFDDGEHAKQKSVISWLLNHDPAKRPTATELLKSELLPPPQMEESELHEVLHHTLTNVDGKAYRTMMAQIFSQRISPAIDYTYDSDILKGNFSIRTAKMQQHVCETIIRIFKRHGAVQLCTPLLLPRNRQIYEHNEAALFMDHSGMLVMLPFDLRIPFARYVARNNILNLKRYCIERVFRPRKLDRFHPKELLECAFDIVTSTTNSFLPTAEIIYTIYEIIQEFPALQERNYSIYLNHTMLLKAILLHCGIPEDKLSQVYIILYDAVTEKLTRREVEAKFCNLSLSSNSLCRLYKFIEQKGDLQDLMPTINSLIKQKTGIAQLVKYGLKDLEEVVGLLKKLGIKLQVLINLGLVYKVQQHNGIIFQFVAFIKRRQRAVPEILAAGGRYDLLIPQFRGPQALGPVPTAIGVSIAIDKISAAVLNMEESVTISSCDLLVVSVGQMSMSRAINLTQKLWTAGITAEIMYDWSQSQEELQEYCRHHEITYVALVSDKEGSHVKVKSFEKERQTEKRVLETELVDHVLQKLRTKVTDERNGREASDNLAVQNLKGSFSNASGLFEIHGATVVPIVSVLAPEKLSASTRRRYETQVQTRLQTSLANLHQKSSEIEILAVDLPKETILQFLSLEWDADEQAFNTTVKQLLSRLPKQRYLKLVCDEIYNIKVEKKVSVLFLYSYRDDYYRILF
row,IC50 [nM],SMILES
1,> 1000,"Cc1cnc(Nc2cc(C)n(C)n2)nc1-c1c[nH]c2c(N3Cc4c(cccc4-c4ccccc4-c4ccccc4)C3=O)cccc12 [Example 439, 4-([1,1′-biphenyl]-2-yl)-2-(3-(2-((1,5-dimethyl-1H-pyrazol-3-yl)amino)-5-methylpyrimidin-4-yl)-1H-indol-7-yl)isoindolin-1-one]"
2,10 to 100,"Cc1ccccc1-c1cccc2c1CN(c1cccc3c(-c4nc(Nc5cc(C)n(C)n5)ncc4C)c[nH]c13)C2=O [Example 440, 2-(3-(2-((1,5-dimethyl-1H-pyrazol-3-yl)amino)-5-methylpyrimidin-4-yl)-1H-indol-7-yl)-4-(o-tolyl)isoindolin-1-one]"
3,10 to 100,"Cc1cnc(Nc2cc(C)n(C)n2)nc1-c1c[nH]c2c(N3Cc4c(cccc4-c4ccccc4O)C3=O)cccc12 [Example 441, 2-(3-(2-((1,5-dimethyl-1H-pyrazol-3-yl)amino)-5-methylpyrimidin-4-yl)-1H-indol-7-yl)-4-(2-hydroxyphenyl)isoindolin-1-one]"
4,10 to 100,"Cc1cnc(Nc2cc(C)n(C)n2)nc1-c1c[nH]c2c(N3Cc4c(cccc4-c4ccc[nH]4)C3=O)cccc12 [Example 442, 2-(3-(2-((1,5-dimethyl-1H-pyrazol-3-yl)amino)-5-methylpyrimidin-4-yl)-1H-indol-7-yl)-4-(1H-pyrrol-2-yl)isoindolin-1-one]"
5,10 to 100,"Cc1cnc(Nc2cc(C)n(C)n2)nc1-c1c[nH]c2c(N3Cc4c(cccc4-c4cccn4C(=O)OC(C)(C)C)C3=O)cccc12 [Example 443, tert-butyl 2-(2-(3-(2-((1,5-dimethyl-1H-pyrazol-3-yl)amino)-5-methylpyrimidin-4-yl)-1H-indol-7-yl)-1-oxoisoindolin-4-yl)-1H-pyrrole-1-carboxylate]"
6,< 10,"Cc1cnc(Nc2cc(C)n(C)n2)nc1-c1c[nH]c2c(N3Cc4c(cccc4-c4c(C)noc4C)C3=O)cccc12 [Example 444, 2-(3-(2-((1,5-dimethyl-1H-pyrazol-3-yl)amino)-5-methylpyrimidin-4-yl)-1H-indol-7-yl)-4-(3,5-dimethylisoxazol-4-yl)isoindolin-1-one]"
7,< 10,"COc1cc(-c2cccc3c2CN(c2cccc4c(-c5nc(Nc6cc(C)n(C)n6)ncc5C)c[nH]c24)C3=O)ccn1 [Example 445, 2-(3-(2-((1,5-dimethyl-1H-pyrazol-3-yl)amino)-5-methylpyrimidin-4-yl)-1H-indol-7-yl)-4-(2-methoxypyridin-4-yl)isoindolin-1-one]"
8,< 10,"Cc1cnc(Nc2cc(C)n(C)n2)nc1-c1c[nH]c2c(N3Cc4c(cccc4-c4ccnc(O)c4)C3=O)cccc12 [Example 446, 2-(3-(2-((1,5-dimethyl-1H-pyrazol-3-yl)amino)-5-methylpyrimidin-4-yl)-1H-indol-7-yl)-4-(2-hydroxypyridin-4-yl)isoindolin-1-one]"
9,< 10,"Cc1cnc(Nc2cc(C)n(C)n2)nc1-c1c[nH]c2c(N3Cc4c(cccc4-c4ccncc4N)C3=O)cccc12 [Example 447, 4-(3-aminopyridin-4-yl)-2-(3-(2-((1,5-dimethyl-1H-pyrazol-3-yl)amino)-5-methylpyrimidin-4-yl)-1H-indol-7-yl)isoindolin-1-one]"
10,< 10,"Cc1cnc(Nc2cc(C)n(C)n2)nc1-c1c[nH]c2c(N3Cc4c(cccc4-c4ccc5ccncc5c4)C3=O)cccc12 [Example 448, 2-(3-(2-((1,5-dimethyl-1H-pyrazol-3-yl)amino)-5-methylpyrimidin-4-yl)-1H-indol-7-yl)-4-(isoquinolin-7-yl)isoindolin-1-one]"
11,10 to 100,"Cc1cnc(Nc2cc(C)n(C)n2)nc1-c1c[nH]c2c(N3Cc4c(cccc4-c4ccc5c(cnn5C)c4)C3=O)cccc12 [Example 449, 2-(3-(2-((1,5-dimethyl-1H-pyrazol-3-yl)amino)-5-methylpyrimidin-4-yl)-1H-indol-7-yl)-4-(i-methyl-1H-indazol-5-yl)isoindolin-1-one]"
12,10 to 100,"Cc1cnc(Nc2cc(C)n(C)n2)nc1-c1c[nH]c2c(N3Cc4c(cccc4-c4ccc5cnn(C)c5c4)C3=O)cccc12 [Example 450, 2-(3-(2-((1,5-dimethyl-1H-pyrazol-3-yl)amino)-5-methylpyrimidin-4-yl)-1H-indol-7-yl)-4-(i-methyl-1H-indazol-6-yl)isoindolin-1-one]"
13,10 to 100,"Cc1ccc(-c2cccc3c2CN(c2cccc4c(-c5nc(Nc6cc(C)n(C)n6)ncc5C)c[nH]c24)C3=O)s1 [Example 451, 2-(3-(2-((1,5-dimethyl-1H-pyrazol-3-yl)amino)-5-methylpyrimidin-4-yl)-1H-indol-7-yl)-4-(5-methylthiophen-2-yl)isoindolin-1-one]"
14,100 to 1000,"Cc1cnc(Nc2cc(C)n(C)n2)nc1-c1c[nH]c2c(N3Cc4c(cccc4-c4ccc5c(c4)CCC5)C3=O)cccc12 [Example 452, 4-(2,3-dihydro-1H-inden-5-yl)-2-(3-(2-((1,5-dimethyl-1H-pyrazol-3-yl)amino)-5-methylpyrimidin-4-yl)-1H-indol-7-yl)isoindolin-1-one]"
15,10 to 100,"Cc1cscc1-c1cccc2c1CN(c1cccc3c(-c4nc(Nc5cc(C)n(C)n5)ncc4C)c[nH]c13)C2=O [Example 453, 2-(3-(2-((1,5-dimethyl-1H-pyrazol-3-yl)amino)-5-methylpyrimidin-4-yl)-1H-indol-7-yl)-4-(4-methylthiophen-3-yl)isoindolin-1-one]"
16,< 10,"Cc1cc(-c2ccc(F)c3c2CN(c2cccc4c(-c5nc(Nc6cc(C)n(C)n6)ncc5C)c[nH]c24)C3=O)ccn1 [Example 454, 2-(3-(2-((1,5-dimethyl-1H-pyrazol-3-yl)amino)-5-methylpyrimidin-4-yl)-1H-indol-7-yl)-7-fluoro-4-(2-methylpyridin-4-yl)isoindolin-1-one]"
17,< 10,"Cc1cnccc1-c1cccc2c1CN(c1cccc3c(-c4nc(Nc5cc(C)n(C)n5)ncc4C)c[nH]c13)C2=O [Example 455, 2-(3-(2-((1,5-dimethyl-1H-pyrazol-3-yl)amino)-5-methylpyrimidin-4-yl)-1H-indol-7-yl)-4-(3-methylpyridin-4-yl)isoindolin-1-one]"
18,< 10,"Cc1cnc(Nc2cc(C)n(C)n2)nc1-c1c[nH]c2c(N3Cc4c(cccc4-c4cc(N)ncn4)C3=O)cccc12 [Example 456, 4-(6-aminopyrimidin-4-yl)-2-(3-(2-((1,5-dimethyl-1H-pyrazol-3-yl)amino)-5-methylpyrimidin-4-yl)-1H-indol-7-yl)isoindolin-1-one]"
19,< 10,"Cc1cnc(Nc2cc(C)n(C)n2)nc1-c1c[nH]c2c(N3Cc4c(cccc4-c4cccc5[nH]ncc45)C3=O)cccc12 [Example 457, 2-(3-(2-((1,5-dimethyl-1H-pyrazol-3-yl)amino)-5-methylpyrimidin-4-yl)-1H-indol-7-yl)-4-(1H-indazol-4-yl)isoindolin-1-one]"
20,10 to 100,"Cc1cnc(Nc2cc(C)n(C)n2)nc1-c1c[nH]c2c(N3Cc4c(cccc4-c4ccccc4C(=O)O)C3=O)cccc12 [Example 458, 2-(2-(3-(2-((1,5-dimethyl-1H-pyrazol-3-yl)amino)-5-methylpyrimidin-4-yl)-1H-indol-7-yl)-1-oxoisoindolin-4-yl)benzoic acid]"
21,< 10,"Cc1cnc(Nc2cc(C)n(C)n2)nc1-c1c[nH]c2c(N3Cc4c(cccc4-c4ccc(CO)cc4)C3=O)cccc12 [Example 460, 2-(3-(2-((1,5-dimethyl-1H-pyrazol-3-yl)amino)-5-methylpyrimidin-4-yl)-1H-indol-7-yl)-4-(4-(hydroxymethyl)phenyl)isoindolin-1-one]"
22,10 to 100,"Cc1cnc(Nc2cc(C)n(C)n2)nc1-c1c[nH]c2c(N3Cc4c(cccc4-c4ccsc4)C3=O)cccc12 [Example 461, 2-(3-(2-((1,5-dimethyl-1H-pyrazol-3-yl)amino)-5-methylpyrimidin-4-yl)-1H-indol-7-yl)-4-(thiophen-3-yl)isoindolin-1-one]"
23,10 to 100,"Cc1cnc(Nc2cc(C)n(C)n2)nc1-c1c[nH]c2c(N3Cc4c(cccc4-c4ccccc4N)C3=O)cccc12 [Example 462, 4-(2-aminophenyl)-2-(3-(2-((1,5-dimethyl-1H-pyrazol-3-yl)amino)-5-methylpyrimidin-4-yl)-1H-indol-7-yl)isoindolin-1-one]"
24,100 to 1000,"COC(=O)c1ccccc1-c1cccc2c1CN(c1cccc3c(-c4nc(Nc5cc(C)n(C)n5)ncc4C)c[nH]c13)C2=O [Example 463, methyl 2-(2-(3-(2-((1,5-dimethyl-1H-pyrazol-3-yl)amino)-5-methylpyrimidin-4-yl)-1H-indol-7-yl)-1-oxoisoindolin-4-yl)benzoate]"
25,< 10,"Cc1cnc(Nc2cc(C)n(C)n2)nc1-c1c[nH]c2c(N3Cc4c(cccc4C4=CCN(C)CC4)C3=O)cccc12 [Example 464, 2-(3-(2-((1,5-dimethyl-1H-pyrazol-3-yl)amino)-5-methylpyrimidin-4-yl)-1H-indol-7-yl)-4-(i-methyl-1,2,3,6-tetrahydropyridin-4-yl)isoindolin-1-one]"
26,< 10,"Cc1cnc(Nc2cc(C)n(C)n2)nc1-c1c[nH]c2c(N3Cc4c(cccc4C4=CCN(S(C)(=O)=O)CC4)C3=O)cccc12 [Example 465, 2-(3-(2-((1,5-dimethyl-1H-pyrazol-3-yl)amino)-5-methylpyrimidin-4-yl)-1H-indol-7-yl)-4-(1-(methylsulfonyl)-1,2,3,6-tetrahydropyridin-4-yl)isoindolin-1-one]"
27,< 10,"CC(=O)N1CC=C(c2cccc3c2CN(c2cccc4c(-c5nc(Nc6cc(C)n(C)n6)ncc5C)c[nH]c24)C3=O)CC1 [Example 466, 4-(1-acetyl-1,2,3,6-tetrahydropyridin-4-yl)-2-(3-(2-((1,5-dimethyl-1H-pyrazol-3-yl)amino)-5-methylpyrimidin-4-yl)-1H-indol-7-yl)isoindolin-1-one]"
28,< 10,"Cc1cnc(Nc2cc(C)n(C)n2)nc1-c1c[nH]c2c(N3Cc4c(cccc4C4=CCN(C(N)=O)CC4)C3=O)cccc12 [Example 467, 4-(2-(3-(2-((1,5-dimethyl-1H-pyrazol-3-yl)amino)-5-methylpyrimidin-4-yl)-1H-indol-7-yl)-1-oxoisoindolin-4-yl)-3,6-dihydropyridine-1(2H)-carboxamide]"

# — patent publication US20240025884A1 (Dong-A ST Co., Ltd., priority 2022, published 2024)
